What follows are compounds tested against P2X7 receptor (Homo sapiens (Human), UniProt Q99572) (assay: P2X7 FLIPR assay: antagonism of BzATP response in 293 HEK cells stably expressing P2X7 receptor). Conditions: FLIPR fluorescence (Fluo-4), agonist BzATP, 293 HEK cells stably transfected with P2X7 receptor.
Format: cell-based
Procedure, shortened: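 Antagonist IC50 derived from FLIPR Tetra Fluo-4 calcium signal evoked by BzATP. Compound pre-incubation was 30 min at room temperature on P2X7-expressing HEK293 cells, seeded 24 h before in low-serum medium and dye-loaded 30 min at 37 °C then 30 min at RT.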

P2X7 receptor, sequence (Q99572 whole entry): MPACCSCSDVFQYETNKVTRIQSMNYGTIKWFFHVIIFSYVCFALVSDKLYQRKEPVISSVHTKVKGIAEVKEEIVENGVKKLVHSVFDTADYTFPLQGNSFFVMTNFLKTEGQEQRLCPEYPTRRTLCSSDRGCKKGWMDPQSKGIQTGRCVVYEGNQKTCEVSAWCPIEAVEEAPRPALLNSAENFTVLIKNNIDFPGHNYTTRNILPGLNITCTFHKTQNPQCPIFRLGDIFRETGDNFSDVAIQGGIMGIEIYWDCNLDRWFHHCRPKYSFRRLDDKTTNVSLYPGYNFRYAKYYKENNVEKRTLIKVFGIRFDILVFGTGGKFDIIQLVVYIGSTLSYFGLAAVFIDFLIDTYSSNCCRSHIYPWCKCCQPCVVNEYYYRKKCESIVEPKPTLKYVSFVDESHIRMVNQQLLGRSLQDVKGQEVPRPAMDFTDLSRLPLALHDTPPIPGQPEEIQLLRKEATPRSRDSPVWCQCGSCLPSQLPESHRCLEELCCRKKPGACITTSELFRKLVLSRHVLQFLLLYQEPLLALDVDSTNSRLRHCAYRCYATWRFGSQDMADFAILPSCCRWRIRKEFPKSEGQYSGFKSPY

| Structure (SMILES) | IC50 |
| --- | --- |
| O=C(NCC(c1ccc(C(F)(F)F)nc1)N1CCOCC1)c1cccc(Cl)c1Cl (stereo not drawn) [2,3-dichloro-N-[2-morpholino-2-[6-(trifluoromethyl)-3-pyridy] [2,3-Dichloro-N-[2-morpholino-2-[6-(trifluoromethyl)-3-pyridyl]ethyl]benzamide] | 0.0046 µM |
| COc1ccc(C(CNC(=O)c2cccc(C)c2C)N2CCOCC2)cc1 (stereo not drawn) [N-[2-(4-Methoxy-phenyl)-2-morpholin-4-yl-ethyl]-2,3-dimethyl-benzamide] | 0.047 µM |
| O=C(NCC(c1cnc(C(F)(F)F)nc1)N1CCOCC1)c1cccc(Cl)c1Cl (single isomer, unassigned; (+)) [(+)2,3-dichloro-N-[2-morpholino-2-[2-(trifluoromethyl)pyrimi] [(+)2,3-Dichloro-N-[2-morpholino-2-[2-(trifluoromethyl)pyrimidin-5-yl]ethyl]benzamide] | 0.0048 µM |
| O=C(NCC(c1cnc(C(F)(F)F)nc1)N1CCC(F)CC1)c1c(Cl)cccc1Cl (single isomer, unassigned; (+)) [(+)2,6-dichloro-N-[2-(4-fluoro-1-piperidyl)-2-[2-(trifluorom] [(+)2,6-dichloro-N-(2-(4-fluoropiperidin-1-yl)-2-(2-(trifluoromethyl)pyrimidin-5-yl)ethyl)benzamide] | 0.0061 µM |
| O=C(NCC(c1cnc(C(F)(F)F)nc1)N1CCC(F)CC1)c1cccc(Cl)c1Cl (single isomer, unassigned; (+)) [(+)2,3-dichloro-N-[2-(4-fluoro-1-piperidyl)-2-[2-(trifluorom] [(+)2,3-dichloro-N-(2-(4-fluoropiperidin-1-yl)-2-(2-(trifluoromethyl)pyrimidin-5-yl)ethyl)benzamide] | 0.0035 µM |
| O=C(NCC(c1ccc(C(F)(F)F)nc1)N1CCC(F)(F)CC1)c1c(F)cccc1Cl (single isomer, unassigned; (-)) [(−)2-chloro-N-[2-(4,4-difluoro-1-piperidyl)-2-[6-(trifluorom] [(−)2-chloro-6-fluoro-N-(2-(4,4-difluoropiperidin-1-yl)-2-(trifluoromethyl)pyridin-5-yl)ethyl)benzamide] | 0.003 µM |
| Cc1ncc(C(CNC(=O)c2c(Cl)cccc2Cl)N2CCC(F)CC2)cn1 (single isomer, unassigned; (+)) [(+)2,6-dichloro-N-[2-(4-fluoro-1-piperidyl)-2-(2-methylpyrim] [(+)2,6-dichloro-N-(2-(4-fluoropiperidin-1-yl)-2-(2-methylpyrimidin-5-yl)ethyl)benzamide] | 0.0096 µM |
| O=C(NCC(c1ccc(C(F)F)nc1)N1CCC(F)(F)CC1)c1ccccc1Cl (single isomer, unassigned; (+)) [(+)2-chloro-N-[2-[6-(difluoromethyl)-3-pyridyl]-2-(4,4-diflu] [(+)2-chloro-N-(2-(2-(difluoromethyl)pyridin-5-yl)-2-(4,4-difluoropiperidin-1-yl)ethyl)benzamide] | 0.009 µM |
| Cc1ncc(C(CNC(=O)c2cccc(OC(F)(F)F)c2Cl)N2CCC(F)(F)CC2)cn1 (single isomer, unassigned; (-)) [(−)2-chloro-N-[2-(4,4-difluoro-1-piperidyl)-2-(2-methylpyrim] [(−)2-chloro-N-(2-(4,4-difluoropiperidin-1-yl)-2-(2-methylpyrimidin-5-yl)ethyl)-3-(trifluoromethoxy)benzamide] | 0.04 µM |
| Cc1ncc(C(CNC(=O)c2c(Cl)cccc2Cl)N2CCCOCC2)cn1 (stereo not drawn) [2,6-dichloro-N-(2-(2-methylpyrimidin-5-yl)-2-(1,4-oxazepan-4-yl)ethyl)benzamide] | 0.74 µM |
| Cc1ccc(C(CNC(=O)c2cccc(F)c2Cl)N2CCC(F)(F)CC2)cn1 (single isomer, unassigned; (-)) [(−)2-chloro-N-[2-(4,4-difluoro-1-piperidyl)-2-(6-methyl-3-pr] [(−)2-chloro-3-fluoro-N-(2-(4,4-difluoropiperidin-1-yl)-2-(2-methylpyridin-5-yl)ethyl)benzamide] | 0.021 µM |
| Cn1cc(C(CNC(=O)c2c(Cl)cccc2Cl)N2CCC(F)(F)CC2)cn1 (single isomer, unassigned; (-)) [(−)2,6-dichloro-N-[2-(4,4-difluoro-1-piperidyl)-2-(1-methylp] [(−)2,6-dichloro-N-(2-(4,4-difluoropiperidin-1-yl)-2-(1-methyl-1H-pyrazol-4-yl)ethyl)benzamide] | 0.044 µM |
| O=C(NCC(c1ccc(C(F)(F)F)nc1)N1CCOCC1)c1cccc(C(F)(F)F)c1Cl (single isomer, unassigned; (-)) [(−)2-chloro-N-[2-morpholino-2-[6-(trifluoromethyl)-3-pyridyl] [(−)2-Chloro-N-[2-morpholino-2-[6-(trifluoromethyl)-3-pyridyl]ethyl]-3-(trifluoromethyl)benzamide] | 0.012 µM |
| Cc1ncc(C(CNC(=O)c2ccccc2Cl)N2CCC(F)(F)CC2)cn1 (single isomer, unassigned; (+)) [(+)2-chloro-N-[2-(4,4-difluoro-1-piperidyl)-2-(2-methylpyrim] [(+)2-chloro-N-[2-(4,4-difluoro-1-piperidyl)-2-(2-methylpyrimidin-5-yl)ethyl]benzamide] | 0.013 µM |
| Cc1ncc(C(CNC(=O)c2cccc(Cl)c2Cl)N2CCC(F)CC2)cn1 (single isomer, unassigned; (-)) [(−)2,3-dichloro-N-[2-(4-fluoro-1-piperidyl)-2-(2-methylpyrim] [(−)2,3-dichloro-N-(2-(4-fluoropiperidin-1-yl)-2-(2-methylpyrimidin-5-yl)ethyl)benzamide] | 0.014 µM |
| Cc1ncc(C(CNC(=O)c2cccc(Cl)c2Cl)N2CCOCC2)cn1 (single isomer, unassigned; (-)) [(−)2,3-dichloro-N-[2-(2-methylpyrimidin-5-yl)-2-morpholino-e] [(−)2,3-Dichloro-N-[2-(2-methylpyrimidin-5-yl)-2-morpholino-ethyl]benzamide] | 0.027 µM |
| O=C(NCC(c1cnc(C(F)F)nc1)N1CCOCC1)c1cccc(F)c1Cl (single isomer, unassigned; (+)) [(+)2-chloro-N-[2-[2-(difluoromethyl)pyrimidin-5-yl]-2-morpho] [(+)2-chloro-3-fluoro-N-(2-(2-(difluoromethyl)pyrimidin-5-yl)-2-morpholinoethyl)benzamide] | 0.0048 µM |
| O=C(NCC(c1cnc(C(F)F)nc1)N1CCOCC1)c1ccccc1Cl (single isomer, unassigned; (-)) [(−)2-chloro-N-[2-[2-(difluoromethyl)pyrimidin-5-yl]-2-morpho] [(−)2-chloro-N-(2-(2-(difluoromethyl)pyrimidin-5-yl)-2-morpholinoethyl)benzamide] | 0.015 µM |
| Cc1ccc(C(CNC(=O)c2c(F)cccc2Cl)N2CCC(F)(F)CC2)cn1 (single isomer, unassigned; (-)) [(−)2-chloro-N-[2-(4,4-difluoro-1-piperidyl)-2-(6-methyl-3-py] [(−)2-chloro-N-(2-(4,4-difluoropiperidin-1-yl)-2-(6-methylpyridin-3-yl)ethyl)-6-fluorobenzamide] | 0.022 µM |
| O=C(NCC(c1cnc(C(F)(F)F)nc1)N1CCC(F)(F)CC1)c1c(F)cc(F)cc1Cl (single isomer, unassigned; (-)) [(−)2-chloro-N-[2-(4,4-difluoro-1-piperidyl)-2-[2-(trifluorom] [(−)2-chloro-4,6-difluoro-N-(2-(4,4-difluoropiperidin-1-yl)-2-(2-(trifluoromethyl)pyrimidin-5-yl)ethyl)benzamide] | 0.031 µM |
| O=C(NCC(c1ccc(F)cc1)N1CCC(F)(F)CC1)c1cccc(Cl)c1Cl (stereo not drawn) [2,3-Dichloro-N-[2-(4,4-difluoro-piperidin-1-yl)-2-(4-fluoro-phenyl)-ethyl]-benzamide] | 0.00033 µM |
| O=C(NCC(c1cnc(C(F)F)nc1)N1CCOCC1)c1cccc(Cl)c1Cl (single isomer, unassigned; (+)) [(+)2,3-dichloro-N-[2-[2-(difluoromethyl)pyrimidin-5-yl]-2-mo] [(+)2,3-dichloro-N-(2-(2-(difluoromethyl)pyrimidin-5-yl)-2-morpholinoethyl)benzamide] | 0.0039 µM |
| O=C(NCC(c1cnc(C(F)F)nc1)N1CCOCC1)c1cccc(F)c1Cl (single isomer, unassigned; (-)) [(−)2-chloro-N-[2-[2-(difluoromethyl)pyrimidin-5-yl]-2-morpho] [(−)2-chloro-3-fluoro-N-(2-(2-(difluoromethyl)pyrimidin-5-yl)-2-morpholinoethyl)benzamide] | 0.038 µM |
| Cc1ncc(C(CNC(=O)c2c(Cl)ccc(F)c2Cl)N2CCC(F)(F)CC2)cn1 (single isomer, unassigned; (+)) [(+)2,6-dichloro-N-[2-(4,4-difluoro-1-piperidyl)-2-(2-methylp] [(+)2,6-dichloro-5-fluoro-N-(2-(4,4-difluoropiperidin-1-yl)-2-(2-methylpyrimidin-5-yl)ethyl)benzamide] | 0.025 µM |
| Cc1ncc(C(CNC(=O)c2cccc(Cl)c2Cl)N2CCCCC2)cn1 (single isomer, unassigned; (+)) [(+)2,3-dichloro-N-[2-(2-methylpyrimidin-5-yl)-2-(1-piperidyl] [(+2,3-dichloro-N-(2-(2-methylpyrimidin-5-yl)-2-(piperidin-1-yl)ethyl)benzamide] | 0.0089 µM |
| COc1ccc(F)c(C(=O)NCC(c2cnc(C(F)(F)F)nc2)N2CCC(F)(F)CC2)c1Cl (single isomer, unassigned; (-)) [(−)2-chloro-N-[2-(4,4-difluoro-1-piperidyl)-2-[2-(trifluorom] [(−)2-chloro-N-(2-(4,4-difluoropiperidin-1-yl)-2-(2-(trifluoromethyl)pyrimidin-5-yl)ethyl)-6-fluoro-3-methoxybenzamide] | 0.031 µM |
| O=C(NCC(c1ccc(F)nc1)N1CCC(F)(F)CC1)c1cccc(Cl)c1Cl (stereo not drawn) [2,3-Dichloro-N-[2-(4,4-difluoro-1-piperidyl)-2-(6-fluoro-3-pyridyl)ethyl]benzamide] | 0.00089 µM |

Source: patent US9415055B2, “Cyclic amines” (H. Lundbeck A/S, priority 2012, dated 2016)
